Measurements published in patent US8785459B2, “Quinazoline compounds as kinase inhibitors” (Development Center for Biotechnology, priority 2011, dated 2014).

Assays:
Assay type in all cases: biochemical
[1] = molecular target: B-Raf (Homo sapiens (Human), UniProt P15056); experiment: Raf kinase assay (B-Raf), [33P] incorporation into MEK1(K97R); settings: for inhibition at 1 µM: 1.0 μM compound, read-out: B-Raf inhibition at 1.0 μM
Protocol: (§1) A. Raf Kinase Assays (B-Raf, B-raf (V600E), and C-Raf)
(§2) Inhibition of kinase activity by test compound disclosed herein was estimated by quantifying the amount of [^33P] incorporation of substrate in the presence of test compound. Standard assay conditions were 2 ng of recombinant C-Raf or 5 ng of recombinant B-Raf or 5 ng of recombinant B-Raf (V600E) kinase (Upstate Biotechnology) with 500 ng MEK1(K97R) in assay buffer {8 μM ATP, 0.5 μCi [^33P]ATP (specific activity 3000 Ci/mmol, PerkinElmer), 50 mM Tris/HCl (pH7.5), and 1 mM EGTA, 1 mM Na3VO4, 1% 2-mercaptoethanol, 0.1% Brij 35, and 0.2 mg/ml BSA} at a final volume of 25 μL. Reactions were incubated at 30° C. for 30 min and stopped by adding 3% phosphoric acid, harvested onto a 96-well GF/B UniFilter (PerkinElmer) using a unifilter harvester (PerkinElmer), and counted with a TopCount microplate scintillation counter (PerkinElmer). The IC50 values of inhibitors were determined after carrying out assays at 3-fold serially diluted concentrations of each compound in duplication. The results were analyzed using linear regression software (GraphPad Prism 4; GraphPad Software Inc.). Inhibition of B-Raf, B-raf (V600E), and C-Raf kinases by various compounds listed in Table 1 are summarized and shown in Table 3 below. IC50 value is defined as the concentration of the test compound which achieves a half-maximal inhibition of the kinase activity.

[2] = molecular target: C-Raf (Homo sapiens (Human), UniProt P04049); experiment: Raf kinase assay (C-Raf), [33P] incorporation into MEK1(K97R)
Protocol: as §1, §2

[3] = molecular target: B-Raf (V600E) (Homo sapiens (Human), UniProt P15056, V600E); experiment: Raf kinase assay (B-Raf (V600E)), [33P] incorporation into MEK1(K97R)
Protocol: as §1, §2

Sequence of C-Raf (P04049 whole entry): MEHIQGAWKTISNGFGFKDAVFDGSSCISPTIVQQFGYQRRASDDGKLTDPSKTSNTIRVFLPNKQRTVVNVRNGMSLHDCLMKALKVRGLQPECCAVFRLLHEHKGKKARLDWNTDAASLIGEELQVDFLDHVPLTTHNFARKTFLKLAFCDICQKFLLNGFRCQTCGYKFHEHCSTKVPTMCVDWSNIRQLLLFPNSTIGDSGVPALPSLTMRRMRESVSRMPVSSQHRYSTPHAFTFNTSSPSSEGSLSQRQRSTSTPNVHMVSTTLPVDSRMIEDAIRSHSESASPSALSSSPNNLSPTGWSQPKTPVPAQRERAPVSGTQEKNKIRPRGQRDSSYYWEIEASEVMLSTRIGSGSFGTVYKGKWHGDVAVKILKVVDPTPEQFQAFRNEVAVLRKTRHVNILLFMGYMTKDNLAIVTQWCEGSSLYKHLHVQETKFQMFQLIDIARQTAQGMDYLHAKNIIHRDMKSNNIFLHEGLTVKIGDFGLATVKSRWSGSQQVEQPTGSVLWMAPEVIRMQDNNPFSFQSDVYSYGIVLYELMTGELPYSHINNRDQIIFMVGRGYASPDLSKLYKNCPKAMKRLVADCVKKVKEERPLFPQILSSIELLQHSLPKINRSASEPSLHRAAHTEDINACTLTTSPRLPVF
Sequence of B-Raf (P15056 whole entry): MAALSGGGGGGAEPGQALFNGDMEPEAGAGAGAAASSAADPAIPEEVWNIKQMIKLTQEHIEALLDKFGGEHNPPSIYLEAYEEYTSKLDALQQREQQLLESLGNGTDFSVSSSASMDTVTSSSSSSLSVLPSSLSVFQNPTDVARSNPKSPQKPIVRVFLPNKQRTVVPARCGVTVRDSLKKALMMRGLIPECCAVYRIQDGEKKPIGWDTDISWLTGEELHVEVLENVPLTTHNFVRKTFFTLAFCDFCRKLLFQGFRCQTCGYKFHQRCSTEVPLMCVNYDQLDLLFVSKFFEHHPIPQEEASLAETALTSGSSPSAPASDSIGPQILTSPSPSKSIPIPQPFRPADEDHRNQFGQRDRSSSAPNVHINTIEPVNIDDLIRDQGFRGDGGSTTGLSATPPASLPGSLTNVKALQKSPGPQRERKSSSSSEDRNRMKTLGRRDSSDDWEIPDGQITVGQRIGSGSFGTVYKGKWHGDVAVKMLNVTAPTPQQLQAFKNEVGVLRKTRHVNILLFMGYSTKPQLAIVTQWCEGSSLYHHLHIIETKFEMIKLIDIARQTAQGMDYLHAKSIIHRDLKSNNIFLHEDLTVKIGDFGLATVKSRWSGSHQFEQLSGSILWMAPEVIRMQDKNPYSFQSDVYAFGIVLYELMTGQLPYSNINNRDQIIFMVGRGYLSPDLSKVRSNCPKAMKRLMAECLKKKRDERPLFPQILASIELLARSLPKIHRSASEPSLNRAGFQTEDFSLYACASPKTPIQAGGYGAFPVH
Sequence of B-Raf (V600E) (P15056 whole entry V600E): as the sequence (P15056 whole entry) above, with V600E counted along it

| SMILES | IC50 [1] [nM] | inhibition at 1 µM [1] [%] | IC50 [2] [nM] | IC50 [3] [nM] |
| --- | --- | --- | --- | --- |
| COc1cc(-c2ccc3ncnc(Nc4cccc(C(F)(F)F)c4)c3c2)ccc1O [Compound 18, 2-methoxy-4-(4-(3-(trifluoromethyl)phenylamino)quinazolin-6-yl)phenol] | 3140 | 48.9 | > 10000 | 1170 |
| COc1cc(-c2ccc3ncnc(Nc4ccc(F)cc4F)c3c2)ccc1O [Compound 20, 4-(4-(2,4-difluorophenylamino)quinazolin-6-yl)-2-methoxyphenol] | 594 | 55.3 | 882 | 471 |
| COc1cc(-c2ccc3ncnc(Nc4ccc(Cl)cc4O)c3c2)ccc1O [Compound 21, 4-(4-(4-chloro-2-hydroxyphenylamino)quinazolin-6-yl)-2-methoxyphenol] | 1120 | 47.6 | 810 | 1360 |
| COc1cccc(Nc2ncnc3ccc(-c4ccc(O)c(OC)c4)cc23)c1 [Compound 22, 2-methoxy-4-(4-(3-methoxyphenylamino)quinazolin-6-yl)phenol] | 719 | 63.3 | 1390 | 411 |
| COc1cc(-c2ccc3ncnc(Nc4ccccc4O)c3c2)ccc1O [Compound 23, 4-(4-(2-hydroxyphenylamino)quinazolin-6-yl)-2-methoxyphenol] | 669 | 62.6 | 3090 | 377 |
| COc1ccc(Nc2ncnc3ccc(-c4ccc(O)c(OC)c4)cc23)cc1O [Compound 25, 4-(4-(3-hydroxy-4-methoxyphenylamino)quinazolin-6-yl)-2-methoxyphenol] | 1110 | 54.9 | 1560 | 842 |
| COc1cc(-c2ccc3ncnc(Nc4cccc(S(N)(=O)=O)c4)c3c2)ccc1O [Compound 27, 3-(6-(4-hydroxy-3-methoxyphenyl)quinazolin-4-ylamino)benzenesulfonamide] | 415 | 77.2 | 887 | 453 |
| COc1cc(-c2ccc3ncnc(Nc4ccc(C)c(O)c4)c3c2)ccc1O [Compound 29, 4-(4-(3-hydroxy-4-methylphenylamino)quinazolin-6-yl)-2-methoxyphenol] | 177 | 85.7 | 1060 | 212 |
| COc1cc(-c2ccc3ncnc(Nc4ccccc4C(N)=O)c3c2)ccc1O [Compound 33, 2-(6-(4-hydroxy-3-methoxyphenyl)quinazolin-4-ylamino)benzamide] | 667 | 53.6 | > 3000 | 2340 |
| COc1cc(-c2ccc3ncnc(Nc4ccc(C(=O)O)cc4O)c3c2)ccc1O [Compound 34, 3-hydroxy-4-(6-(4-hydroxy-3-methoxyphenyl)quinazolin-4-ylamino)benzoic acid] | 494 | 65 | 580 | 572 |
| COc1cc(-c2ccc3ncnc(Nc4cccc(C(N)=O)c4)c3c2)ccc1O [Compound 35, 3-(6-(4-hydroxy-3-methoxyphenyl)quinazolin-4-ylamino)benzamide] | 317 | 74.9 | 970 | 290 |
| COc1cc(-c2ccc3ncnc(Nc4cccc([N+](=O)[O-])c4)c3c2)ccc1O [Compound 36, 2-methoxy-4-(4-(3-nitrophenylamino)quinazolin-6-yl)phenol] | 256 | 76.3 | 6990 | 675 |
| COc1cc(-c2ccc3ncnc(Nc4cccc(N)c4)c3c2)ccc1O [Compound 37, 4-(4-(3-aminophenylamino)quinazolin-6-yl)-2-methoxyphenol] | 573 | 65.8 | 1310 | 849 |

The remaining lines, values ahead:

| IC50 [1] [nM] | inhibition at 1 µM [1] [%] | IC50 [2] [nM] | IC50 [3] [nM] | SMILES |
| --- | --- | --- | --- | --- |
| 660 | 57.5 | 1400 | 707 | COc1cc(-c2ccc3ncnc(Nc4ccc5c(c4)OCO5)c3c2)ccc1O [Compound 38, 4-(4-(benzo[d][1,3]dioxol-5-ylamino)quinazolin-6-yl)-2-methoxyphenol] |
| 1030 | 51.6 | 3280 | 1440 | COc1cc(-c2ccc3ncnc(Nc4ccc5cn[nH]c5c4)c3c2)ccc1O [Compound 39, 4-(4-(1H-indazol-6-ylamino)quinazolin-6-yl)-2-methoxyphenol] |
| 266 | 82.2 | > 10000 | 349 | COc1cc(-c2cc3c(Nc4ccc(C)c(O)c4)ncnc3cc2OC)ccc1O [Compound 41, 4-(4-(3-hydroxy-4-methylphenylamino)-7-methoxyquinazolin-6-yl)-2-methoxyphenol] |
| 489 | 65.3 | 685 | 382 | COc1cc(-c2ccc3ncnc(Nc4cccc(NC(C)=O)c4)c3c2)ccc1O [Compound 44, N-(3-(6-(4-hydroxy-3-methoxyphenyl)quinazolin-4-ylamino)phenyl)acetamide] |
| 382 | 73.9 | 835 | 358 | COc1cc(-c2ccc3ncnc(Nc4cccc(NC(=O)C(F)(F)F)c4)c3c2)ccc1O [Compound 45, 2,2,2-trifluoro-N-(3-(6-(4-hydroxy-3-methoxyphenyl)quinazolin-4-ylamino)phenyl)acetamide] |
| 624 | 64.4 | 1960 | 576 | COc1cc(-c2ccc3ncnc(Nc4ccc(S(N)(=O)=O)cc4)c3c2)ccc1O [Compound 46, 4-(6-(4-hydroxy-3-methoxyphenyl)quinazolin-4-ylamino)benzenesulfonamide] |
| 560 | 69.2 | 1300 | 544 | COc1cc(-c2ccc3ncnc(Nc4cccc(F)c4)c3c2)ccc1O [Compound 52, 4-(4-(3-fluorophenylamino)quinazolin-6-yl)-2-methoxyphenol] |
| 141 | 85.5 | 500 | 181 | COc1cc(-c2ccc3ncnc(Nc4cccc(O)c4C)c3c2)ccc1O [Compound 53, 3-(6-(4-hydroxy-3-methoxyphenyl)quinazolin-4-ylamino)-2-methylphenol] |
| 735 | 56.2 | 2570 | 633 | COc1cc(-c2ccc3ncnc(Nc4ccc5nc[nH]c5c4)c3c2)ccc1O [Compound 54, 4-(4-(1H-benzo[d]imidazol-6-ylamino)quinazolin-6-yl)-2-methoxyphenol] |
| 463 | 64.1 | 1410 | 430 | COc1cc(-c2ccc3ncnc(Nc4cccc(NS(C)(=O)=O)c4)c3c2)ccc1O [Compound 56, N-(3-(6-(4-hydroxy-3-methoxyphenyl)quinazolin-4-ylamino)phenyl)methanesulfonamide] |
| 1010 | 59.3 | 973 | 933 | COc1cc(-c2ccc3ncnc(Nc4ccc5[nH]nnc5c4)c3c2)ccc1O [Compound 66, 4-(4-(1H-benzo[d][1,2,3]triazol-5-ylamino)quinazolin-6-yl)-2-methoxyphenol] |
| 103 | 84.3 | 2400 | 139 | COc1cccc(-c2ccc3ncnc(Nc4cccc(O)c4)c3c2)c1 [Compound 67, 3-(6-(3-methoxyphenyl)quinazolin-4-ylamino)phenol] |
| 260 | 75 | 957 | 342 | Nc1ccc(-c2ccc3ncnc(Nc4cccc5[nH]ncc45)c3c2)cc1 [Compound 69, 6-(4-aminophenyl)-N-(1H-indazol-4-yl)quinazolin-4-amine] |
| 373 | 77.2 | 935 | 393 | CC(=O)Nc1ccc(-c2ccc3ncnc(Nc4cccc5[nH]ncc45)c3c2)cc1 [Compound 71, N-(4-(4-(1H-indazol-4-ylamino)quinazolin-6-yl)phenyl)acetamide] |
| 73.8 | 93.4 | 861 | 90 | CS(=O)(=O)Nc1cccc(-c2ccc3ncnc(Nc4cccc(O)c4)c3c2)c1 [Compound 72, N-(3-(4-(3-hydroxyphenylamino)quinazolin-6-yl)phenyl)methanesulfonamide] |
| 366 | 72.5 | 1430 | 487 | CS(=O)(=O)Nc1ccc(-c2ccc3ncnc(Nc4cccc5[nH]ncc45)c3c2)cc1 [Compound 73, N-(4-(4-(1H-indazol-4-ylamino)quinazolin-6-yl)phenyl)methanesulfonamide] |
| 216 | 86.1 | 876 | 240 | COc1ccc(-c2ccc3ncnc(Nc4cccc5[nH]ncc45)c3c2)cc1Cl [Compound 76, 6-(3-chloro-4-methoxyphenyl)-N-(1H-indazol-4-yl)quinazolin-4-amine] |
